Test results taken from ChEMBL document CHEMBL1817609, “SAR studies of 4-pyridyl heterocyclic anilines that selectively induce autophagic cell death in von Hippel-Lindau-deficient renal cell carcinoma cells” (Bioorg Med Chem, 2011).

Assay: Growth inhibition of human RCC4 cells after 4 days by XTT assay
Format: functional, cell-based
Conditions: RCC4, 96 h, read-out: pIC50 (converted)

| Structure (SMILES) | IC50 |
| --- | --- |
| C#Cc1cnccc1-c1csc(Nc2cccc(C)c2)n1 | 1.38 µM |
| CCc1cc(-c2csc(Nc3cccc(C)c3)n2)ccn1 | 6.46 µM |
| Cc1cccc(Nc2nc(-c3ccncc3)c(CCCO)s2)c1 | 3.63 µM |
| CN(C)CCOc1ccc(Nc2nc(-c3ccncc3)cs2)cc1 | 60.3 µM |
| Cc1cccc(Nc2nc(-c3ccnc(F)c3)cs2)c1 | 4.57 µM |
| c1cc(-c2csc(Nc3ccc4c(c3)CCC4)n2)ccn1 | 2.04 µM |
| Cc1cccc(Nc2nc(-c3ccnc(Cl)c3)cs2)c1 | 2.24 µM |
| Oc1ccccc1Nc1nc(-c2ccncc2)cs1 | 12.9 µM |
| Cc1cccc(Nc2nc(-c3ccncc3Cl)cs2)c1 | 2.95 µM |
| Cc1cc(C)cc(Nc2nc(-c3ccncc3)cs2)c1 | 4.57 µM |
| Fc1ccccc1Nc1nc(-c2ccncc2)cs1 | 14.5 µM |
| FC(F)(F)c1ccccc1Nc1nc(-c2ccncc2)cs1 | 40.7 µM |
| CC(C)(C)c1cccc(Nc2nc(-c3ccncc3)cs2)c1 | 60.3 µM |
| Clc1ccc(Nc2nc(-c3ccncc3)cs2)cc1Cl | 13.8 µM |
| Cc1cccc(Nc2nc(-c3ccncc3)c(C(=O)N(C)C)s2)c1 | 16.2 µM |
| COc1ccc(Nc2nc(-c3ccncc3)cs2)cc1 | 14.1 µM |
| COc1ccc(Nc2nc(-c3ccncc3)cs2)cc1OC | 24.5 µM |
| Cc1ccc(Nc2nc(-c3ccncc3)cs2)cc1C | 6.61 µM |
| CCN(c1cccc(C)c1)c1nc(-c2ccncc2)cs1 | 40.7 µM |
| Cc1cc(Nc2nc(-c3ccncc3)cs2)ccc1O | 70.8 µM |
| COC(=O)C=CC(=O)c1sc(Nc2cccc(C)c2)nc1-c1ccncc1 | 2.51 µM |
| Clc1ccc(Nc2nc(-c3ccncc3)cs2)cc1 | 38 µM |
| FC(F)(F)c1ccc(Nc2nc(-c3ccncc3)cs2)cc1 | 40.7 µM |
| OCCc1ccc(Nc2nc(-c3ccncc3)cs2)cc1 | 5.01 µM |
| Cc1sc(Nc2ccc3c(c2)CCC3)nc1-c1ccncc1 | 12 µM |
| Clc1cccc(Nc2nc(-c3ccncc3)cs2)c1 | 3.02 µM |
| Cc1cccc(Nc2nc(-c3ccncc3)c(CN3CCCCC3)s2)c1 | 13.2 µM |

| Structure (SMILES) | IC50 |
| --- | --- |
| Cc1cccc(Nc2nc(-c3ccncc3)c(C)s2)c1 | 10 µM |
| C#Cc1cc(-c2csc(Nc3cccc(C)c3)n2)ccn1 | 18.2 µM |
| OCc1sc(Nc2ccccc2)nc1-c1ccncc1 | 30.2 µM |
| Cc1cccc(Nc2nc(-c3ccncc3Br)cs2)c1 | 3.98 µM |
| Cc1cccc(Nc2nc(-c3ccnc(C)c3)cs2)c1 | 28.8 µM |
| Cc1cccc(Nc2nc(-c3ccnc(Br)c3)cs2)c1 | 2.04 µM |
| Cc1cccc(Nc2nc(-c3ccnc(CCCO)c3)cs2)c1 | 5.25 µM |
| Cc1cccc(Nc2nc(-c3ccncc3)c(CN3CCOCC3)s2)c1 | 2.51 µM |
| CN(C)CCc1ccc(Nc2nc(-c3ccncc3)cs2)cc1 | 50.1 µM |
| Cc1ccc(Nc2nc(-c3ccncc3)cs2)cc1O | 12 µM |
| COc1cccc(Nc2nc(-c3ccncc3)cs2)c1 | 3.02 µM |
| Cc1cccc(Nc2nc(-c3ccncc3)c(CN(C)C)s2)c1 | 16.2 µM |
| CC(C)c1cccc(Nc2nc(-c3ccncc3)cs2)c1 | 17.4 µM |
| Cc1ccc(Nc2nc(-c3ccncc3)cs2)cc1 | 2.51 µM |
| Cc1cccc(Nc2nc(-c3ccncc3)c(C(N)=O)s2)c1 | 19.5 µM |
| CCc1cccc(Nc2nc(-c3ccncc3)cs2)c1 | 2.51 µM |
| Cc1cccc(N(C)c2nc(-c3ccncc3)cs2)c1 | 28.2 µM |
| Cc1cccc(Nc2nc(-c3ccncc3C)cs2)c1 | 5.25 µM |
| Fc1ccc(Nc2nc(-c3ccncc3)cs2)cc1 | 6.03 µM |
| Cc1cccc(Nc2nc(-c3ccncc3CCCO)cs2)c1 | 6.92 µM |
| Fc1cccc(Nc2nc(-c3ccncc3)cs2)c1 | 40.7 µM |
| O=[N+]([O-])c1ccccc1Nc1nc(-c2ccncc2)cs1 | 40.7 µM |
| Oc1cccc(Nc2nc(-c3ccncc3)cs2)c1 | 28.8 µM |
| Oc1ccc(Nc2nc(-c3ccncc3)cs2)cc1 | 5.37 µM |
| COc1ccccc1Nc1nc(-c2ccncc2)cs1 | 33.9 µM |
| Clc1ccccc1Nc1nc(-c2ccncc2)cs1 | 28.2 µM |
| Brc1cccc(Nc2nc(-c3ccncc3)cs2)c1 | 40.7 µM |
